Laboratory results reported in PubChem BioAssay (NCI).
Values joined by “and” are separate entries in the source; they are usually repeats but may differ in a detail not shown here. Identical values can stand only once.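 96-well plates; 48 h exposure; 5 concentrations. Endpoints by linear interpolation between flanking doses. Not reached: highest tested concentration assigned. GI50 is the concentration that inhibits growth by half. The concentration for full growth arrest is given as TGI.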

How the values were obtained:
Test in all cases: inhibition of tumour cell growth, NCI panel, 48 h
A549 NSCLC = test system: A549 NSCLC
EKVX NSCLC = test system: EKVX NSCLC
HCT-15 colon = test system: HCT-15 colon
K-562 leukemia = test system: K-562 leukemia
MOLT-4 leukemia = test system: MOLT-4 leukemia
NCI-H460 lung = test system: NCI-H460 lung
OVCAR-3 ovarian = test system: OVCAR-3 ovarian
SN12C renal = test system: SN12C renal
SNB-19 CNS = test system: SNB-19 CNS
UO-31 renal = test system: UO-31 renal

Row | SMILES | TGI (A549 NSCLC) | TGI (EKVX NSCLC) | TGI (HCT-15 colon) | TGI (K-562 leukemia) | TGI (MOLT-4 leukemia) | TGI (NCI-H460 lung) | TGI (OVCAR-3 ovarian) | TGI (SN12C renal) | TGI (SNB-19 CNS) | TGI (UO-31 renal) | GI50 (EKVX NSCLC) | GI50 (A549 NSCLC) | GI50 (HCT-15 colon) | GI50 (K-562 leukemia) | GI50 (MOLT-4 leukemia) | GI50 (NCI-H460 lung) | GI50 (OVCAR-3 ovarian) | GI50 (SN12C renal) | GI50 (SNB-19 CNS) | GI50 (UO-31 renal)
1 | N#CC(c1ccccc1)N1CCCN(C(C#N)c2ccccc2)C1c1ccccc1O (stereo unspecified) | > 100 µM | > 100 µM | > 100 µM | > 100 µM | > 100 µM | > 100 µM | > 100 µM | > 100 µM | > 100 µM | > 100 µM | – | – | – | – | – | – | – | – | – | –
2 | O=[n+]1c2c(n([O-])c3ccccc31)-c1cccc3cccc-2c13 | > 100 µM | – | > 100 µM | > 100 µM | > 100 µM | > 100 µM | > 100 µM | > 100 µM | > 100 µM | > 100 µM | – | – | – | – | – | – | – | – | – | –
3 | O=[N+]([O-])c1ccc2c(c1)c(N=NC(=S)NC1CCCCC1)c(O)n2CN1CCOCC1 | 15.7 µM | 14.1 µM | 15.6 µM | > 100 µM | > 100 µM | 13.5 µM | 20.4 µM | 19.7 µM | 22.2 µM | 18.4 µM | – | – | – | – | – | – | – | – | – | –
4 | CCC(C)C1NC(=O)C2CCCN2C(=O)C(CC2CO2)OC(=O)CCNC(=O)C(C)N(C)C(=O)C(C(C)C)N(C)C1=O (stereo unspecified) | > 33.6 µM | > 100 µM | > 100 µM | > 100 µM | – | > 100 µM | > 100 µM | > 100 µM | > 100 µM | 15 µM | – | – | – | – | – | – | – | – | – | –
5 | COC(=O)C1C(C)N1C (stereo unspecified) | > 100 µM | > 100 µM | > 100 µM | > 100 µM | > 100 µM | > 100 µM | > 100 µM | > 100 µM | > 100 µM | – | – | – | – | – | – | – | – | – | – | –
6 | Cc1cc(O)c(C(C)C)cc1CN1CCCCC1 | > 100 µM | > 100 µM | > 100 µM | > 100 µM | > 100 µM | > 100 µM | > 100 µM | > 100 µM | > 100 µM | > 100 µM | – | – | – | – | – | – | – | – | – | –
7 | CC[C@@]1(O)C(=O)OCc2c1cc1n(c2=O)Cc2c-1nc1ccc(O)cc1c2CC[Si](C)(C)C | 0.24 µM and 0.167 µM | – | 95 µM | – | 0.00221 µM | 0.00445 µM and 0.0117 µM | 0.127 µM | – | > 100 µM | 0.123 µM and 0.0795 µM | 0.0181 µM | – | – | – | – | – | – | – | – | –
8 | O=C(O)C(CSC(c1ccccc1)(c1ccccc1)c1ccccc1)N=Cc1cccs1 (stereo unspecified) | > 100 µM | > 100 µM | > 100 µM | > 100 µM | > 75.7 µM | > 48.9 µM | 19.1 µM | 98.1 µM | > 100 µM | > 100 µM | – | – | – | – | – | – | – | – | – | –
9 | COc1ccc(N=c2ssc(C(=S)Nc3ccc(OC)cc3)c2S)cc1 | > 100 µM | > 100 µM | > 100 µM | > 100 µM | > 100 µM | > 100 µM | > 100 µM | > 100 µM | > 100 µM | > 100 µM | – | – | – | – | – | – | – | – | – | –
10 | COC(=O)C1C(O)CCC2CN3CCc4c([nH]c5cccc(OC)c45)C3CC21 (stereo unspecified) | > 100 µM | > 100 µM | > 100 µM | > 100 µM | > 100 µM | > 100 µM | > 100 µM | > 100 µM | > 100 µM | > 100 µM | – | – | – | – | – | – | – | – | – | –
11 | CCOC(=O)C1CCn2c(nc3c2c(=O)n(C)c(=O)n3C)S1 (stereo unspecified) | > 100 µM | > 100 µM | > 100 µM | > 100 µM | > 100 µM | > 100 µM | > 100 µM | > 100 µM | > 100 µM | – | – | – | – | – | – | – | – | – | – | –
12 | C[C@]12CCC(=O)C=C1CC[C@@H]1[C@@H]2[C@@H](O)C[C@@]2(C)[C@H]1CC[C@]2(O)C(=O)CO | > 100 µM | > 100 µM | > 100 µM | > 100 µM | > 100 µM | > 100 µM | > 100 µM | > 100 µM | > 100 µM | > 100 µM | – | – | – | – | – | – | – | – | – | –
13 | O=C1c2cc3c(cc2-c2c1c1ccc(Cl)cc1c(=O)n2C[C@H](O)[C@@H](O)[C@H](O)CO)OCO3 | 0.476 µM | 11.2 µM | 1.66 µM | > 100 µM | 12.5 µM | 0.153 µM | 0.452 µM | > 100 µM | > 100 µM | 0.125 µM | 0.202 µM | 0.112 µM | 0.143 µM | 0.0342 µM | < 0.01 µM | 0.0284 µM | 0.0758 µM | 0.0473 µM | 0.0216 µM | 0.0297 µM
14 | CC1(C)CCC2(C(=O)OC3OC(CO)C(O)C(O)C3O)CCC3(C)C(=CCC4C5(C)CCC(OC6OC(CO)C(O)C(O)C6O)C(C)(C)C5CCC43C)C2C1 (stereo unspecified) | > 25 µM | > 25 µM | > 25 µM | > 25 µM | 13.7 µM | > 25 µM | > 25 µM | > 25 µM | > 25 µM | > 25 µM | – | – | – | – | – | – | – | – | – | –
15 | N[C@H]1CCN(c2c(F)cc3c(=O)c(C(=O)O)cn4c3c2Oc2cc3c(ccc5ccccc53)cc2-4)C1 | > 100 µM | 7.21 µM | > 100 µM | > 100 µM | > 100 µM | 5.28 µM | > 100 µM | > 100 µM | > 100 µM | > 100 µM | – | – | – | – | – | – | – | – | – | –
16 | NCCNc1nc(N2CCCC2)c2nc(Cl)c(NCc3ccccc3)nc2n1 | 3.36 µM | 4.36 µM | 3.84 µM | 0.182 µM | 4.48 µM | 3.54 µM | 4.16 µM | 2.92 µM | 3.91 µM | 3.32 µM | – | – | – | – | – | – | – | – | – | –
17 | C/C(=N\NC(=O)c1cccnc1)c1cccc(/C(C)=N/NC(=O)c2cccnc2)n1 | 34.7 µM | > 100 µM | > 100 µM | > 100 µM | 12 µM | 34.6 µM | 47.3 µM | > 100 µM | > 100 µM | 80.7 µM | – | – | – | 3.04 µM | 2.45 µM | – | 2.05 µM | – | – | –
18 | CC1(C)CC(=O)C2=C(C1)NC(SSC1=C(C#N)C(c3ccc(F)cc3)C3=C(CC(C)(C)CC3=O)N1)=C(C#N)C2c1ccc(F)cc1 (stereo unspecified) | 15 µg/mL | 78.5 µg/mL | 64 µg/mL | > 150 µg/mL | 118 µg/mL | > 150 µg/mL | 46.1 µg/mL | 52.1 µg/mL | > 150 µg/mL | 74.9 µg/mL | 35.5 µg/mL | 15 µg/mL | 30.3 µg/mL | 17.1 µg/mL | 39.1 µg/mL | 47.8 µg/mL | 25.6 µg/mL | 27.9 µg/mL | 77.1 µg/mL | 32 µg/mL
19 | CC(Sc1ccccc1)C(CO)(CO)[N+](=O)[O-] (stereo unspecified) | 34.1 µM | 34.1 µM | 30.6 µM | 34.4 µM | 19.3 µM | 50.7 µM | 29.4 µM | 31.2 µM | 43.8 µM | 22.6 µM | – | – | – | – | – | – | – | – | – | –
20 | COc1ccc(/C=C(\C#N)c2nc(N)nc(N3N=C(C)CC3(C)C)n2)c(O)c1 | 44.5 µM | 47.9 µM | 35.3 µM | 84.7 µM | 34.1 µM | 38.2 µM | 28.3 µM | > 100 µM | > 100 µM | 36 µM | – | – | – | – | – | – | – | – | – | –
21 | C[C@]12CC[C@@H]3c4ccccc4CC[C@H]3[C@@H]1CC[C@@H]2O | > 100 µM | > 100 µM | > 100 µM | > 100 µM | > 100 µM | > 100 µM | > 100 µM | > 100 µM | > 100 µM | > 100 µM | – | – | – | – | – | – | – | – | – | –
22 | O=S(=O)(O)c1cccc2c(N=Nc3c(O)ccc4ccccc34)cccc12 | > 100 µM | > 100 µM | > 100 µM | > 100 µM | > 100 µM | – | > 100 µM | > 100 µM | > 100 µM | > 100 µM | – | – | – | – | – | – | – | – | – | –
23 | CN1C2CCC1C(C(O)c1ccccc1[N+](=O)[O-])C(=O)C2 (stereo unspecified) | > 100 µM | > 100 µM | > 100 µM | > 100 µM | > 100 µM | > 100 µM | > 100 µM | > 100 µM | > 100 µM | > 100 µM | – | – | – | – | – | – | – | – | – | –
24 | Nc1nc(N)c2c(n1)NC(c1ccccc1)CC(/C=C/c1ccc(Cl)cc1)=N2 (stereo unspecified) | 60.8 µM | 17.3 µM | 23.3 µM | 9.61 µM | 12.6 µM | 18 µM | 23.4 µM | 23.6 µM | 29.1 µM | 23.4 µM | – | – | – | – | – | – | – | – | – | –
25 | O=S1(=O)OC(c2ccc(O)cc2)(c2ccc(O)cc2)c2ccccc21 | > 100 µM | > 100 µM | > 100 µM | > 100 µM | > 100 µM | > 100 µM | > 100 µM | > 100 µM | > 100 µM | > 100 µM | – | – | – | – | – | – | – | – | – | –
